# Measured values reported in patent publication US5144029A, “Derivatives of 1-[3-(4-hydroxyphenyl) 1-hydroxy 1-propyl] benzene substituted in position 2 by an aminoalkyleneoxy chain, the method of preparing same and the application thereof to therapeutics” (Delalande S.A., priority 1988, dated 1992).
# pIC50: −log10 of the molar value.
# System: basilar artery of a rabbit (contraction induced by KCl)
# Assay: Contraction of removed rabbit basilar artery in a hyperpotassic medium (calcium antagonistic activity)
# Format: cell-based
# Details: Oryctolagus cuniculus, KCl at 35 mmoles, read-out: IC50 (concentration which reduces by 50% the amplitude of the contraction induced by KCl)
# Description: The protocol of this test is the following. The rabbit is anaesthetized with pentobarbital at a dose of 30 mg/kg then sacrificed by exsanguination and decapitated at the third cervical vertebra. The basilar artery is removed (1.5 cm) between the vertebral arteries and the Willis's polygon. The basilar artery is then cut in a spiral at an angle of 45°. It is fixed by means of a curved needle between an L shaped glass support and a movement sensor (Grass, type FT03). A mechanical tension of 500 mg is applied to the vessel, before letting it reach its equilibrium condition.
# For a period of 1 hour, the vessel is rinsed every 20 minutes, until a stable level is obtained.
# The tonic contraction following depolarization caused by KCl is dependent on the calcic movements for it is abolished by the suppression of calcium in the survival medium.
# The concentrations (in nM) are measured which reduce by 50% the amplitude of the contraction induced by the KCl at 35 mmoles.
row,Structure (SMILES),pIC50
1,COc1ccc(OCC(F)(F)F)c(OCCN2CCCCC2)c1C(O)CCc1ccc(O)cc1 (stereo not drawn) [compound 137],< 7.00
2,COc1ccc(OCc2ccccc2)c(C(O)CCc2ccc(O)cc2)c1OCCN1CCCCC1 (stereo not drawn) [compound 146],< 7.00
3,COc1ccc(O)c(C(O)CCc2ccc(O)cc2)c1OCCN1CCCCC1 (stereo not drawn) [compound 148],< 7.00
4,CCCCOc1ccc(OC)c(OCCN2CCCCC2)c1C(O)CCc1ccc(O)cc1 (stereo not drawn) [compound 150],7.00
5,CCCOc1ccc(OC)c(OCCN2CCCCC2)c1C(O)CCc1ccc(O)cc1 (stereo not drawn) [compound 152],8.00
6,CCCCCCCCOc1ccc(OC)c(OCCN2CCCCC2)c1C(O)CCc1ccc(O)cc1 (stereo not drawn) [compound 156],< 7.00
7,CCOc1ccc(OC)c(OCCN2CCCCC2)c1C(O)CCc1ccc(O)cc1 (stereo not drawn) [compound 160],8.22
8,CCOc1ccc(OC)c(C(O)CCc2ccc(O)cc2)c1OCCN1CCCCC1 (stereo not drawn) [compound 164],7.62
9,COc1ccc(SC)c(OCCN2CCCCC2)c1C(O)CCc1ccc(O)cc1 (stereo not drawn) [compound 174],7.57

# Next, values leading:
row,pIC50,Structure (SMILES)
1,7.89,COc1ccc(OC(C)C)c(C(O)CCc2ccc(O)cc2)c1OCCN1CCCCC1 (stereo not drawn) [compound 154]
2,< 7.00,COc1ccc(OC2CCCCC2)c(C(O)CCc2ccc(O)cc2)c1OCCN1CCCCC1 (stereo not drawn) [compound 158]
3,6.92,CCCOc1ccc(OC)c(C(O)CCc2ccc(O)cc2)c1OCCN1CCCCC1 (stereo not drawn) [compound 166]
4,7.28,C=CCOc1ccc(OC)c(C(O)CCc2ccc(O)cc2)c1OCCN1CCCCC1 (stereo not drawn) [compound 167]
5,< 7.00,COc1ccc(OCc2ccccc2)c(OCCN2CCCCC2)c1C(O)CCc1ccc(O)cc1 (stereo not drawn) [compound 168]
6,< 7.00,COc1ccc(O)c(OCCN2CCCCC2)c1C(O)CCc1ccc(O)cc1 (stereo not drawn) [compound 169]
7,< 7.00,COCCOc1ccc(OC)c(C(O)CCc2ccc(O)cc2)c1OCCN1CCCCC1 (stereo not drawn) [compound 171]
8,< 7.00,COc1ccc(OC2CCCCC2)c(OCCN2CCCCC2)c1C(O)CCc1ccc(O)cc1 (stereo not drawn) [compound 173]
9,7.51,CCSc1ccc(OC)c(C(O)CCc2ccc(O)cc2)c1OCCN1CCCCC1 (stereo not drawn) [compound 175]
10,7.52,COc1ccc(C)c(C(O)CCc2ccc(O)cc2)c1OCCN1CCCCC1 (stereo not drawn) [compound 177]

# System: not listed separately
# Assay: Acute toxicity (LD50) in mice, method of Litchfield and Wilcoxon
# Details: mouse, in vivo, iv
row,Structure (SMILES),LD50 [mg/kg]
1,CCOc1ccc(OC)c(C(O)CCc2ccc(O)cc2)c1OCCN1CCCCC1 (stereo not drawn) [compound 164],17
2,COc1ccc(SC)c(OCCN2CCCCC2)c1C(O)CCc1ccc(O)cc1 (stereo not drawn) [compound 174],22
